Measured values taken from paper PMC3880013, “Toward an Understanding of Agonist Binding to Human Orexin-1 and Orexin-2 Receptors with G-Protein-Coupled Receptor Modeling and Site-Directed Mutagenesis” (Biochemistry, 2013).
Marks after values point to notes of the source that are not given here.

Tests used:
Assay in all cases: Calcium flux assay, CHO-K1 cells stably expressing Orexin receptor mutant
Type in all cases: cell-based, human
[1] = test system: hOX2 F227W; conditions: hOX2 F227W (5.42) relative to wild type, CHO-K1, Fluo-4AM, this work
Method: (§1) A combination of overlap and mismatch polymerase chain reaction (PCR) was used to introduce mutations into the corresponding Orexin-1 and Orexin-2 cDNAs as described by us previously.[62] Each mutation was made via the generation of two overlapping PCR fragments with PfuUltra II Fusion HS DNA Polymerase (Strategene). The two products were extracted, and a second round of PCR was performed via combination of both fragments with 5′ and 3′ gene specific primers (containing BamHI and NotI restriction sites, respectively). The resulting gel-purified products were then cloned into expression vector pFB-Neo for subsequent generation of stable cell lines. Constructs were confirmed via sequencing. Each verified cDNA was subsequently used to generate single, stably expressing clones in the CHO-K1 cell line.
(§2) Standard calcium flux assays were used to assess the functionality of each OX receptor mutant. Each CHO-K1 Orexin mutant was seeded into tissue culture-treated, 384-well, black clear-bottom plates (CellBind Corning 7086), at a density of 7500 cells/well in culture medium and maintained in an incubator (5% CO2 at 37 °C) overnight. The cell medium was removed, and the cells were incubated in 20 μL of assay buffer (4 μM Fluo-4AM in HBSS with 0.1% BSA) for 90 min at 37 °C. After incubation, the dye was removed and 45 μL of fresh buffer, without dye, was applied. Antagonists (5 μL) were applied, and after incubation for an additional 20 min at 37 °C, 20 μL of receptor specific agonists was applied and the calcium flux monitored using a Flex Station (Molecular Devices) over a period of 1 min. In all cases, the EC80 specific for the individual mutant as determined in previous experiments was reported.

[2] = test system: hOX1 Y311F; conditions: hOX1 Y311F (6.48) relative to wild type, CHO-K1, Fluo-4AM, this work
Method: as §1, §2

[3] = test system: hOX2 Q134A; conditions: hOX2 Q134A (3.32) relative to wild type, CHO-K1, Fluo-4AM, this work
Method: as §1, §2

[4] = test system: hOX2 Q187A; conditions: hOX2 Q187A (4.60) relative to wild type, CHO-K1, Fluo-4AM, this work
Method: as §1, §2

[5] = test system: hOX1 Q179A; conditions: hOX1 Q179A (4.60) vs wild type, CHO-K1, Fluo-4AM, this work
Method: as §1, §2

With Orexin-B the “ratio EC50(mut)/EC50(WT)” value [1] was 75.0 ^d fold, the “ratio EC50(mut)/EC50(WT)” value [2] was 0.85 ^d fold and the “ratio EC50(mut)/EC50(WT)” value [3] was 5.1 ^d fold. For the same substance, the “ratio EC50(mut)/EC50(WT)” value [4] was 1.7 ^d fold and the “fold improvement in potency relative to wild type” value [5] was 72.2 fold improvement.
